Measurements reported in publication PMC8805583, “Discovery of Herbacetin as a Novel SGK1 Inhibitor to Alleviate Myocardial Hypertrophy” (Advanced Science, 2021).
“Also recorded” adds a separate entry of the source.

Legend:
[1] = molecular target: T1, SGK1 protein with the D177A mutation (Homo sapiens, UniProt O00141, D177A); test: MS-based kinase inhibitory assay with FLAG-tagged mutated SGK1 immunoprecipitated from HEK293T; assay type: biochemical; conditions: normalized to WT SGK1
T1 construct: host or cells: HEK293T
T1 sequence (O00141 1-431 D177A): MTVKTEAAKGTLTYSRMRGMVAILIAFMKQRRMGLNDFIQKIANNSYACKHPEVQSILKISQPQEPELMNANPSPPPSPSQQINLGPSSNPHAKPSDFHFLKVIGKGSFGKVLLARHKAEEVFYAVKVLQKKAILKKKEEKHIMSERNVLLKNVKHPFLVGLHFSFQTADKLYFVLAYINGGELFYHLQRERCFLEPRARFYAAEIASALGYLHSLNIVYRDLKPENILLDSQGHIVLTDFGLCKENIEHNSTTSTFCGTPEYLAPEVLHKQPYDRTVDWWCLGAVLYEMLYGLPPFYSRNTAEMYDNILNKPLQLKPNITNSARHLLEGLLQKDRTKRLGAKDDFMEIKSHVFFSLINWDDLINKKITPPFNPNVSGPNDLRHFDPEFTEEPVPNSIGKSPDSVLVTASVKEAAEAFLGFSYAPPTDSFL
Text: To further elaborate the interaction between SGK1 and HBT, the SGK1‐HBT complex was constructed by molecular docking based on the SGK1 crystal structures retrieved from the Protein Data Bank (PDB). […] To explore the impacts of these three residues on the SGK1‐HBT binding, plasmids carrying respective SGK1 mutations (D177A, N227A, and T239A) were designed and transfected in the human embryonic kidney cells (HEK293T). The FLAG‐tagged wild‐type or mutated SGK1 protein lysates were collected by immunoprecipitation and examined for enzymatic activity in the presence of HBT using MS‐based kinase inhibitory assay.
The initial crystal structures of SGK1 (PDB entry: 3HDN, 3HDM, and 2R5T) were obtained from the Protein Data Bank (PDB). The prepared inhibitors were then docked by Glide with the extra precision (XP) scoring mode to estimate the binding affinity for each protein–ligand complex. The detailed process of docking has been described previously.^[ [46] ^] HEK293T cells were transfected with SGK1 mutant plasmids. After 24 h, cells were lysed and immunoprecipitated with anti‐FLAG antibody and beads. Immune complexes were washed with kinase buffer and incubated in kinase buffer with substrate peptide for 1 h at 30 ℃ followed by LC/MS measurement as described above. KINOMEscan Profiling Service and KinaseProfiler Service Assay were provided by Eurofins Discovery.

ISO mice = test: ISO-induced cardiac hypertrophy in mice; assay type: in vivo
Method: Finally, we assessed the cardioprotective effect of HBT in mice infused with the hypertrophic agonist isoproterenol (ISO). Mice were challenged with ISO for 21 days via subcutaneous injection and then were administered with 10 mg kg^−1 of HBT once per day until the mice were sacrificed (Figure 7A).
For isoproterenol (ISO)‐mediated cardiac hypertrophy, mice were randomly divided into 3 groups, control group (Ctrl), ISO group and ISO plus HBT group (HBT), 5 mg kg^−1 day^−1 ISO was given for 21 days by subcutaneous injection. The control mice were treated with 1% DMSO‐vehicle. At the same time, male C57BL/6 mice in HBT group were intraperitoneally injected with 10 mg kg^−1 d^−1 HBT diluted with a solution containing 1% DMSO and 99% saline. Echocardiography was performed on conscious mice using a Vevo 2100 system. M‐mode images of the left ventricular short axis were captured. After echocardiography evaluation, the mice were anesthetized via intraperitoneal injection of 240 mg kg^−1 pentobarbital sodium and were euthanized by excising the heart rapidly.

control mice = test: HBT in control mice (safety); assay type: in vivo
Method: Finally, we evaluate the safety and pharmacokinetics of HBT to ensure its druggability. […] Single dose administration of HBT at 40 mg kg^−1 was uptaken rapidly with a maximal plasma concentration of ≈6.73 ng mL^−1 after 10 min (Figure S14A, Supporting Information).
Figure S12. The mice were divided into two groups: Sham, Sham mice treated with HBT (Ctrl + HBT). (A) Schedule of animal treatments. (B) Heart weight/Body weight ratio (HW/BW) was detected in Ctrl and Ctrl + HBT group. (C-D) Echocardiography assessments were performed in the two groups. n=10-12. (E) HE in different groups of mice. n=4, Scale bar=50 μm. (F) The phosphorylation level of SGK1 in myocardial tissues in the two groups (Ctrl, Ctrl + HBT), n=4. Data were analyzed using unpaired two-tailed t test and data were expressed as means ± SD, ns: no significant.
(1 picture or pasted object on this page, not shown here)
Figure S13. Serum level of biochemical markers in mice of Ctrl and Ctrl + HBT groups. Data were analyzed using unpaired two-tailed t test and data were expressed as means ± SD, ns: no […]
Figure S14. Plasma concentration (A) and in vivo distribution (B) of HBT after single oral administration with dosage of 40mg/kg rat weight (n=5-6). The quantitation of HBT was performed by LC-MS/MS analysis. […]

O=c1c(O)c(-c2ccc(O)cc2)oc2c(O)c(O)cc(O)c12 [HBT, herbacetin]
inhibition of D177A-mutated SGK1 by HBT [1]: completely ablates; also recorded: almost completely lost its response
toxicity (ISO mice; 10 mg kg−1 d−1 for 21 days): without causing any significant toxicity
left ventricular ejection fraction (EF%) and fraction shortening (FS%) (ISO mice; ISO 5 mg kg−1 d−1 21 days, HBT 10 mg kg−1 d−1 intraperitoneally): increased
decreased Bcl-2 and MnSOD levels (ISO mice; ISO mice): almost completely reversed
serum NT-proBNP (ISO mice; ISO mice, ELISA): decreased level
heart weight/tibial length (HW/TL) (ISO mice; ISO mice, HBT 10 mg kg−1): reduce the HW/TL level
left ventricular volume (LV Vol;d and LV Vol;s) (ISO mice; ISO mice, HBT 10 mg kg−1): decreased
accumulation of collagen fibrosis (ISO mice; ISO mice, Masson's staining): reduced
expression of p-SGK1, α-SMA and Col-3 (ISO mice; ISO mice, western blot): reduced expression
FoxO1 phosphorylation, STIM1 and Orai1 protein expression in heart tissue (ISO mice; ISO mouse model): significantly decreased
level of HO-1 and Nrf2 in heart tissue (ISO mice; ISO mouse model): increased
heart weight, cardiac function, cardiac histopathology (control mice; control mice): no adverse effect
serum level of regular biomarkers (ALT, AST, TCHO) (control mice; control versus HBT-treated mice): no significant difference
